Data reported in ChEMBL document CHEMBL5390280, “Design, Synthesis, and Biological Evaluation of an Orally Bioavailable, Potent, and Selective ROCK2 Inhibitor for Psoriasis Treatment” (J Med Chem, 2023).

Legend:
[1] = target: T1, Rho-associated protein kinase 2 (Homo sapiens, UniProt O75116); test: Inhibition of ROCK2 (unknown origin) by HTRF assay
[2] = target: T2, Rho-associated protein kinase 1 (Homo sapiens, UniProt Q13464); test: Inhibition of ROCK1 (unknown origin) by HTRF assay
[3] = Selectivity ratio of IC50 for ROCK1 (unknown origin) to IC50 for ROCK2 (unknown origin)
[4] = target: T2, Rho-associated protein kinase 1; test: Inhibition of ROCK1 (unknown origin)
[5] = target: T1, Rho-associated protein kinase 2; test: Inhibition of ROCK2 (unknown origin)

T1 sequence (O75116 whole entry): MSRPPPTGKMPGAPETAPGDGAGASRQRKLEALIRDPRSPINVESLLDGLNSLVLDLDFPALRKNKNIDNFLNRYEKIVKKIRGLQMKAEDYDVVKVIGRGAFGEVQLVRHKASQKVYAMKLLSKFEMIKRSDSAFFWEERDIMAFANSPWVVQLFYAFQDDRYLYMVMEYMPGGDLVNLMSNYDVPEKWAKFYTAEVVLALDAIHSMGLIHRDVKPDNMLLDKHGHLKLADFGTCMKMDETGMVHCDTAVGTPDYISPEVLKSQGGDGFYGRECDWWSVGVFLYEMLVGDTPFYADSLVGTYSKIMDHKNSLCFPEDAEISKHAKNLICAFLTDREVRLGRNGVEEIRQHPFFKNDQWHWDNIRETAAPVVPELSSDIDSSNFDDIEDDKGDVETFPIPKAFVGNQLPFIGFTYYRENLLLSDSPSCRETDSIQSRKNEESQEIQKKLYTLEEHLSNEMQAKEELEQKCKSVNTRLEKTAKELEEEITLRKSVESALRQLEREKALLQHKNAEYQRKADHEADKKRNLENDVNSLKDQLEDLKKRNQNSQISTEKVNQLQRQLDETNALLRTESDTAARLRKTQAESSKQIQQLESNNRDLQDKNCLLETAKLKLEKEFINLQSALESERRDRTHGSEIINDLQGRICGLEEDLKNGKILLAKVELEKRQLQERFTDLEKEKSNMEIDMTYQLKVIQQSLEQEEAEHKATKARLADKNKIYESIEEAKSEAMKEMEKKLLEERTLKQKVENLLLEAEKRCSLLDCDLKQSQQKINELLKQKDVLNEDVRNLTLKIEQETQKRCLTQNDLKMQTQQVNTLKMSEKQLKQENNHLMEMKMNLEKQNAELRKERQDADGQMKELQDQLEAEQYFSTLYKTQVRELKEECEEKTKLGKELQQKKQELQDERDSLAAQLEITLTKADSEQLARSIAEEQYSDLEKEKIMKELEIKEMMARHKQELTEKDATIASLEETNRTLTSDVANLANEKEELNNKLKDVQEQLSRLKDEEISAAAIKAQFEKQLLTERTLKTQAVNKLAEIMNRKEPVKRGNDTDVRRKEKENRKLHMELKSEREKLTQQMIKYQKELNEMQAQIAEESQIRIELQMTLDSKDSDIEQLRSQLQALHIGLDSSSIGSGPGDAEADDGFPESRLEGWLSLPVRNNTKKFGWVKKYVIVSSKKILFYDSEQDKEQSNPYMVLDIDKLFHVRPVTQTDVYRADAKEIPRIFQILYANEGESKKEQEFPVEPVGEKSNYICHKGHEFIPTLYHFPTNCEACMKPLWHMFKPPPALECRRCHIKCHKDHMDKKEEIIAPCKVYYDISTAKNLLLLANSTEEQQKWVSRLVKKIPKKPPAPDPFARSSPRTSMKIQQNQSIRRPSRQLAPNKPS
T2 sequence (Q13464 whole entry): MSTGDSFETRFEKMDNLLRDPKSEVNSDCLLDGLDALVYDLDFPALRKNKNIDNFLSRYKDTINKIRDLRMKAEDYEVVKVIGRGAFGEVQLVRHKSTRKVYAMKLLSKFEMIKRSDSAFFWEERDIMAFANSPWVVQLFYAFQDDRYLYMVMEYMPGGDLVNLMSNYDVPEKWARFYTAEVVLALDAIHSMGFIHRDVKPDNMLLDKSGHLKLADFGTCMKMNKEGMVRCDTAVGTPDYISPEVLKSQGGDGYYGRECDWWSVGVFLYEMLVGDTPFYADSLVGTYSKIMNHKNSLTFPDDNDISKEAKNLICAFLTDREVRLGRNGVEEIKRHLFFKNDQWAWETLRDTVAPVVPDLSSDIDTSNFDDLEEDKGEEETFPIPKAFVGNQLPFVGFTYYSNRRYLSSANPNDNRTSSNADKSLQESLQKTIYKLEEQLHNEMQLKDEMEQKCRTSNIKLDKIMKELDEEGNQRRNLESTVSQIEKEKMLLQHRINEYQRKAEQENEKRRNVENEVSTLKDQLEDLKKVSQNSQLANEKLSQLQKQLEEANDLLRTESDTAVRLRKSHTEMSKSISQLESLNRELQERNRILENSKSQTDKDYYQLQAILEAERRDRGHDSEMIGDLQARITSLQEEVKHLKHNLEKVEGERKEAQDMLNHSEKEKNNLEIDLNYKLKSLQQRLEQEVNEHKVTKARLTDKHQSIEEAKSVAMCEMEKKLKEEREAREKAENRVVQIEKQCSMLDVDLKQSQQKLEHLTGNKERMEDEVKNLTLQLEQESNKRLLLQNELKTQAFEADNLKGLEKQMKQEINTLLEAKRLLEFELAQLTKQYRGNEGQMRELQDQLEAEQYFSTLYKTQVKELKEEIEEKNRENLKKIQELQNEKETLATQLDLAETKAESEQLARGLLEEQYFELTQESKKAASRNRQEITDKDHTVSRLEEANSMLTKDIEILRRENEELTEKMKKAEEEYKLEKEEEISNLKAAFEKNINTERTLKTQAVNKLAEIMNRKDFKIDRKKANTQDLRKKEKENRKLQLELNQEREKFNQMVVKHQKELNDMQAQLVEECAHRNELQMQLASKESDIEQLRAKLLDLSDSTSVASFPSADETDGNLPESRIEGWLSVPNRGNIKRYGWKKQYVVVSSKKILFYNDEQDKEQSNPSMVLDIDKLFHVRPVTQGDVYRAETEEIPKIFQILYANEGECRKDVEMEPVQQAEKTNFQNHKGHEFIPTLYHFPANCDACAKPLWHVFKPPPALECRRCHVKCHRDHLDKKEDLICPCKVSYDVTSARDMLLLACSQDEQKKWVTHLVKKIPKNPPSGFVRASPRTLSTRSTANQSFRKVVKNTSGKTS

## O=c1ccccn1-c1cccc(CN[C@H]2CCC[C@H](Nc3ccc4[nH]ncc4c3)C2)c1
[1]
  IC50: 42.4 nM
[2]
  IC50: 162 nM
[3]
  Ratio IC50: 4

## COc1cc(-c2cn[nH]c2)cc2c(=O)[nH]c(C3COc4ccc(OCCN(C)C)cc4C3)nc12 (stereo not given)
[4]
  IC50: 150 nM
[5]
  IC50: 12 nM

## NC(=O)c1ccn(-c2cccc(CN[C@H]3CCC[C@@H](Nc4ccc5[nH]ncc5c4)C3)c2)c(=O)c1
[1]
  IC50: 130 nM
[2]
  IC50: 464 nM
[3]
  Ratio IC50: 4

## Cc1ccn(-c2cccc(CN[C@H]3CCC[C@@H](Nc4ccc5[nH]ncc5c4)C3)c2)c(=O)c1
[1]
  IC50: 11.9 nM
[2]
  IC50: 812 nM
[3]
  Ratio IC50: 68

## Cc1ccc(=O)n(-c2cccc(CN[C@H]3CCC[C@@H](Nc4ccc5[nH]ncc5c4)C3)c2)c1
[1]
  IC50: 138 nM
[2]
  IC50: 102 nM
[3]
  Ratio IC50: 1

## Cc1cc(=O)n(-c2cccc(CN[C@H]3CCC[C@@H](Nc4ccc5[nH]ncc5c4)C3)c2)cc1N
[1]
  IC50: 434 nM

## Nc1ccn(-c2cccc(CN[C@H]3CCC[C@@H](Nc4ccc5[nH]ncc5c4)C3)c2)c(=O)c1
[1]
  IC50: 77.5 nM

## Cc1ccc(=O)n(-c2cccc(CN[C@H]3CCC[C@H](Nc4ccc5[nH]ncc5c4)C3)c2)c1
[1]
  IC50: 35.4 nM
[2]
  IC50: 152 nM
[3]
  Ratio IC50: 4

## Cc1cc(=O)n(-c2cccc(CN[C@H]3CCC[C@H](Nc4ccc5[nH]ncc5c4)C3)c2)cc1N
[1]
  IC50: 561 nM

## O=c1ccccn1-c1cccc(CN[C@H]2CCC[C@@H](Nc3ccc4[nH]ncc4c3)C2)c1
[1]
  IC50: 73.7 nM
[2]
  IC50: 644 nM
[3]
  Ratio IC50: 9

## Nc1nc(=O)n(-c2cccc(CN[C@H]3CCC[C@@H](Nc4ccc5[nH]ncc5c4)C3)c2)cc1F
[1]
  IC50: 83.7 nM

## Cc1ccn(-c2cccc(CN[C@H]3CCC[C@H](Nc4ccc5[nH]ncc5c4)C3)c2)c(=O)c1
[1]
  IC50: 26 nM
[2]
  IC50: 171 nM
[3]
  Ratio IC50: 7

## Nc1ccn(-c2cccc(CN[C@H]3CCC[C@H](Nc4ccc5[nH]ncc5c4)C3)c2)c(=O)c1
[1]
  IC50: 54 nM

## Nc1ccn(-c2ccc(CNC3CCCC(Nc4ccc5[nH]ncc5c4)C3)cc2)c(=O)n1 (stereo not given)
[1]
  IC50: 0.7 nM

## CC(C)CCC(=O)Nc1ccn([C@H]2CC[C@H](O[C@H]3O[C@H](C)[C@@H](N(C)C)[C@H](O)[C@H]3O)[C@@H](C)O2)c(=O)n1
[1]
  IC50: 72.8 nM

## NC(=O)c1ccn(-c2cccc(CN[C@H]3CCC[C@H](Nc4ccc5[nH]ncc5c4)C3)c2)c(=O)c1
[1]
  IC50: 102 nM
[2]
  IC50: 238 nM
[3]
  Ratio IC50: 2

## Nc1ccn(-c2ccc(CN3CCCC(Nc4ccc5[nH]ncc5c4)C3)cc2)c(=O)n1 (stereo not given)
[1]
  IC50: 5 nM

## CC(C)(C)c1ccn(-c2cccc(CN[C@H]3CCC[C@H](Nc4ccc5[nH]ncc5c4)C3)c2)c(=O)c1
[1]
  IC50: 1.3 nM
[2]
  IC50: 210 nM
[3]
  Ratio IC50: 162

## O=c1cc(F)ccn1-c1cccc(CN[C@H]2CCC[C@H](Nc3ccc4[nH]ncc4c3)C2)c1
[1]
  IC50: 36.6 nM
[2]
  IC50: 207 nM
[3]
  Ratio IC50: 6

## O=c1cc(-c2ccccc2)ccn1-c1cccc(CN[C@H]2CCC[C@H](Nc3ccc4[nH]ncc4c3)C2)c1
[1]
  IC50: 3 nM
[2]
  IC50: 96.1 nM
[3]
  Ratio IC50: 32

## O=c1cc(F)ccn1-c1cccc(CN[C@H]2CCC[C@@H](Nc3ccc4[nH]ncc4c3)C2)c1
[1]
  IC50: 88.1 nM
[2]
  IC50: 273 nM
[3]
  Ratio IC50: 3

## CCc1ccn(-c2cccc(CN[C@H]3CCC[C@H](Nc4ccc5[nH]ncc5c4)C3)c2)c(=O)c1C
[1]
  IC50: 13.1 nM
[2]
  IC50: 209 nM
[3]
  Ratio IC50: 16

## Nc1ccn(-c2cccc(CN3CCCC(Nc4ccc5[nH]ncc5c4)C3)c2)c(=O)n1 (stereo not given)
[1]
  IC50: 1 nM

## Cc1cccn(-c2cccc(CN[C@H]3CCC[C@@H](Nc4ccc5[nH]ncc5c4)C3)c2)c1=O
[1]
  IC50: 153 nM
[2]
  IC50: 811 nM
[3]
  Ratio IC50: 5

## CCc1ccn(-c2cccc(CN[C@H]3CCC[C@@H](Nc4ccc5[nH]ncc5c4)C3)c2)c(=O)c1C
[1]
  IC50: 6.1 nM
[2]
  IC50: 313 nM
[3]
  Ratio IC50: 52

## O=c1cc(C(F)(F)F)ccn1-c1cccc(CN[C@H]2CCC[C@@H](Nc3ccc4[nH]ncc4c3)C2)c1
[1]
  IC50: 207 nM
[2]
  IC50: 967 nM
[3]
  Ratio IC50: 5

## CC(C)(C)c1ccn(-c2cccc(CN[C@H]3CCC[C@@H](Nc4ccc5[nH]ncc5c4)C3)c2)c(=O)c1
[1]
  IC50: 1.6 nM
[2]
  IC50: 335 nM
[3]
  Ratio IC50: 216

## Nc1ccn(-c2cccc(CNC3CCCC(Nc4ccc5[nH]ncc5c4)C3)c2)c(=O)n1 (stereo not given)
[1]
  IC50: 0.2 nM

## O=c1cc(C(F)(F)F)ccn1-c1cccc(CN[C@H]2CCC[C@H](Nc3ccc4[nH]ncc4c3)C2)c1
[1]
  IC50: 173 nM
[2]
  IC50: 279 nM
[3]
  Ratio IC50: 2

## N#Cc1ccn(-c2cccc(CN[C@H]3CCC[C@@H](Nc4ccc5[nH]ncc5c4)C3)c2)c(=O)c1
[1]
  IC50: 77.1 nM
[2]
  IC50: 272 nM
[3]
  Ratio IC50: 4

## Nc1ccn(-c2ccc(CN3CCCCC(Nc4ccc5[nH]ncc5c4)C3)cc2)c(=O)n1 (stereo not given)
[1]
  IC50: 2 nM

## O=c1cc(-c2ccccc2)ccn1-c1cccc(CN[C@H]2CCC[C@@H](Nc3ccc4[nH]ncc4c3)C2)c1
[1]
  IC50: 1.7 nM
[2]
  IC50: 99.4 nM
[3]
  Ratio IC50: 59

## Cc1cccn(-c2cccc(CN[C@H]3CCC[C@H](Nc4ccc5[nH]ncc5c4)C3)c2)c1=O
[1]
  IC50: 18.7 nM
[2]
  IC50: 277 nM
[3]
  Ratio IC50: 15

## Nc1nc(=O)n(-c2cccc(CN[C@H]3CCC[C@H](Nc4ccc5[nH]ncc5c4)C3)c2)cc1F
[1]
  IC50: 66.2 nM

## Cc1cc(=O)n(-c2cccc(CN[C@H]3CCC[C@@H](Nc4ccc5[nH]ncc5c4)C3)c2)cc1F
[1]
  IC50: 27 nM
[2]
  IC50: 216 nM
[3]
  Ratio IC50: 8
